Earlier results, collected in patent US6034286A, “Processes for producing saturated alcohols” (Union Carbide Chemicals & Plastics Technology Corporation, priority 1997, dated 2000).

Experiments:
[1] = Table II, promoter; approximate values
[2] = Table I, organophosphorus ligand

Row | Structure (SMILES) | pKa [1] | pKb [2]
1 | N#CCC#N [CNCH2 CN] | 11 | –
2 | c1ccc(P(c2ccccc2)c2ccccc2)cc1 [Triphenylphosphine] | – | 2.74
